Data set [1] is described as follows: Exposed Polar Surface Area (EPSA). It is filed as physicochemical. The note with it: SFC on Chirex 3014 column; sample 1 mM DMSO stock; read-out: EPSA. The gist of the method: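 Retention-based polarity: supercritical CO2 with 20 mM ammonium formate in MeOH (5–60%, 20%/min), Chirex 3014 column, 35 °C. Calibrated against 8 standards to give EPSA (Å^2); each sample measured twice.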

In data set [2] the target is T1, IL-23R (Homo sapiens, UniProt Q5VWK5).
T1 construct: host or cells: HEK293
T1 sequence (Q5VWK5 24-629): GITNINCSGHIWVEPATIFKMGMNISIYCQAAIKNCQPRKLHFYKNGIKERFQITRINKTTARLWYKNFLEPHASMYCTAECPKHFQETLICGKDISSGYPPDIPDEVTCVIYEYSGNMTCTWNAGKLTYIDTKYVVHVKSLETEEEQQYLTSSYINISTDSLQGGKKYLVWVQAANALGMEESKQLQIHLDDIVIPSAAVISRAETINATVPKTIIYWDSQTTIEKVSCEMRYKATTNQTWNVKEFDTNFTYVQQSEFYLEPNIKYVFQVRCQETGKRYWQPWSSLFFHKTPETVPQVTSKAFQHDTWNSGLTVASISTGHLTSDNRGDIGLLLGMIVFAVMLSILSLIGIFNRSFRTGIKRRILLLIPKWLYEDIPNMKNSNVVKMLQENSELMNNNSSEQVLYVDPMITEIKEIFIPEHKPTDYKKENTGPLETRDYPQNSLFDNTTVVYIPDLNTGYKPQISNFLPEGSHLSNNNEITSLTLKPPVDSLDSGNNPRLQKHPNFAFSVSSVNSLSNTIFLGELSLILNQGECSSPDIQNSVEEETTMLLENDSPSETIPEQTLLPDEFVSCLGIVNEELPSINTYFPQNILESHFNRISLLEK
The data set is described as follows: IL23R Reporter Assay. It is filed as cell-based. The note with it: HEK293 cells containing IL-23R, IL-12RP1 and STAT-inducible firefly luciferase reporter; 10 ng/mL IL-23 (EC90); 5 h at 37° C.; read-out: IL23R Reporter Assay.

pIC50: −log10 of the molar value. Starred links: 1 amine or outer side, 2 acyl side, 3 side chain; linkers in the order of their positions; H or OH if unused. Positions of bridges follow the written chain, without caps; N, C: chain ends. Non-standard residues stand in square brackets, D forms with d. Residues, ends and D or L forms follow the SMILES beside them. Groups on a side chain read outwards from the residue. *: point of attachment. X41 = C[N+]1(CCCCCCCc2cn(-c3ccc(C[C@H](N[*:1])C(=O)[*:2])cc3)nn2)CCOCC1; X27 = C[N+](C)(C)CCc1cn(-c2ccc(C[C@H](N[*:1])C(=O)[*:2])cc2)nn1; Me3N+(CH2)2O(CH2)2O(CH2)2CO = C[N+](C)(C)CCOCCOCCC(=O)*; CH2CH2OCH2CH2OCH2CH2NMe3+ = C[N+](C)(C)CCOCCOCC*; Phe(4-N3) = [N-]=[N+]=Nc1ccc(C[C@H](N)C(=O)O)cc1; Trp(7-Me) = Cc1cccc2c(C[C@H](N)C(=O)O)c[nH]c12; Dab(NMeAc) = CC(=O)N(C)CC[C@H](N)C(=O)O; γGlu = O=C(O)[C@H](CCC(=O)[*:2])N[*:1]; 2Nal = N[C@@H](Cc1ccc2ccccc2c1)C(=O)O; AEF = NCCOc1ccc(C[C@H](N)C(=O)O)cc1; dNMeY = CN[C@H](Cc1ccc(O)cc1)C(=O)O; 3Pal = N[C@@H](Cc1cccnc1)C(=O)O; Cit = NC(=O)NCCC[C@H](N)C(=O)O; Lys(Me) = CNCCCC[C@H](N)C(=O)O; αMeL = CC(C)C[C@](C)(N)C(=O)O; Pen = CC(C)(S)[C@H](N)C(=O)O; Lauroyl = CCCCCCCCCCCC(=O)*; Thp = NC1(C(=O)O)CCOCC1; X3 = C[N+](C)(C)CCCCC*; AEEA = NCCOCCOCC(=O)O; Sar = CNCC(=O)O

Take `CC(=O)NCCCC[C@@H]1NC(=O)[C@H](Cc2c[nH]c3c(C)cccc23)NC(=O)[C@H]([C@@H](C)O)NC(=O)[C@H](CC(N)=O)NC(=O)[C@@H](NC(C)=O)C(C)(C)SSC(C)(C)[C@@H](C(=O)N[C@@H](Cc2ccc(-n3cc(CC[N+](C)(C)C)nn3)cc2)C(=O)N[C@@H](Cc2ccc3ccccc3c2)C(=O)NC2(C(=O)N[C@@H](CCC(=O)O)C(=O)N[C@@H](CC(N)=O)C(=O)N[C@@H](Cc3cccnc3)C(=O)N(C)CC(N)=O)CCOCC2)NC1=O` [compound 454] (Ac-[Pen]NT[Trp(7-Me)]K(Ac)[Pen][X27][2Nal][Thp]EN[3Pal][Sar]-NH2; disulfide 1-6 (inferred)): in data set [1], the EPSA was 176 A^2. For the same compound, in data set [2], the pIC50 is 8.68.
For `CC(=O)NCCCC[C@@H]1NC(=O)[C@H](Cc2c[nH]c3c(C)cccc23)NC(=O)[C@H]([C@@H](C)O)NC(=O)[C@H](CC(N)=O)NC(=O)[C@@H](NC(=O)CCOCCOCC[N+](C)(C)C)C(C)(C)SSC(C)(C)[C@@H](C(=O)N[C@@H](Cc2ccc(OCCN)cc2)C(=O)N[C@@H](Cc2ccc3ccccc3c2)C(=O)NC2(C(=O)N[C@@H](CCC(=O)O)C(=O)N[C@@H](CC(N)=O)C(=O)N[C@@H](Cc3cncc(C)c3)C(=O)N(C)CC(N)=O)CCOCC2)NC1=O` [compound 506, cPEG3aCO-Pen(3)-N-T-7MeW-K(Ac)-Pen(3)-AEF-2Nal-THP-E-N-5MePyridinAla-Sar-CONH2] the same measures were 191 A^2 and 8.39.
Regarding `CC(=O)N(C)CCCC[C@H](NC(=O)C1(NC(=O)[C@H](Cc2ccc3ccccc3c2)NC(=O)[C@H](Cc2ccc(OCCCCC[N+](C)(C)C)cc2)NC(=O)[C@H]2NC(=O)[C@H](CC(C)C)NC(=O)[C@H](Cc3c[nH]c4c(C)cccc34)NC(=O)[C@H]([C@@H](C)O)NC(=O)[C@H](CC(=O)N(C)C)NC(=O)[C@@H](NC(=O)CCOCCOCC[N+](C)(C)C)C(C)(C)SSC2(C)C)CCOCC1)C(=O)N[C@@H](CC(N)=O)C(=O)N[C@@H](Cc1cccnc1)C(=O)N(C)CC(=O)N(C)C` [compound 489, cPEG3aCO-Pen(3)-N(N(Me)2)-T-7MeW-L-Pen(3)-TMAPF-2Nal-THP-K(NMeAc)-N-3Pya-Sar-CON(Me)2] ({Me3N+(CH2)2O(CH2)2O(CH2)2CO}-[Pen]D(NMe2)T[Trp(7-Me)]L[Pen]Y(X3)[2Nal][Thp][Lys(Me)](Ac)N[3Pal][Sar]-NMe2; disulfide 1-6), the EPSA in data set [1] is 164 A^2. For the same compound, the pIC50 in data set [2] was 8.43.
For `CC(=O)N(C)CCCC[C@@H]1NC(=O)[C@H](Cc2c[nH]c3c(C)cccc23)NC(=O)[C@H]([C@@H](C)O)NC(=O)[C@H](CC(=O)N(C)C)NC(=O)[C@@H](NC(=O)CCOCCOCC[N+](C)(C)C)C(C)(C)SSC(C)(C)[C@@H](C(=O)N[C@@H](Cc2ccc(OCCCCC[N+](C)(C)C)cc2)C(=O)N[C@@H](Cc2ccc3ccccc3c2)C(=O)NC2(C(=O)N[C@@H](CCN(C)C(C)=O)C(=O)N[C@@H](CC(N)=O)C(=O)N[C@@H](Cc3cccnc3)C(=O)N(C)CC(=O)N(C)C)CCOCC2)NC1=O` [compound 301, cPEG3aCO-Pen(3)-N(N(Me)2)-T-7MeW-K(NMeAC)-Pen(3)-TMAPF-2Nal-THP-Dab(NMeAc)-N-3Pya-Sar-CON(Me)2] ({Me3N+(CH2)2O(CH2)2O(CH2)2CO}-[Pen]D(NMe2)T[Trp(7-Me)][Lys(Me)](Ac)[Pen]Y(X3)[2Nal][Thp][Dab(NMeAc)]N[3Pal][Sar]-NMe2; disulfide 1-6) the same measures were 153 A^2 and 9.14.
For `CC(=O)N[C@H](CCCNC(=N)N)C(=O)N[C@@H]1C(=O)N[C@@H](CC(N)=O)C(=O)N[C@@H]([C@@H](C)O)C(=O)N[C@@H](Cc2c[nH]c3c(C)cccc23)C(=O)N[C@@H](CCCNC(N)=O)C(=O)N[C@H](C(=O)N[C@@H](Cc2ccc(OCCN)cc2)C(=O)N[C@@H](Cc2ccc3ccccc3c2)C(=O)N[C@@](C)(CC(C)C)C(=O)N[C@@H](CCC(=O)O)C(=O)N[C@@H](CC(N)=O)C(=O)N[C@H](Cc2c[nH]cn2)C(=O)N(C)[C@H](Cc2ccc(O)cc2)C(N)=O)C(C)(C)SSC1(C)C` [compound 17, MeCO-r-Pen(3)-N-T-7MeW-Cit-Pen(3)-AEF-2Nal-aMeL-E-N-h-NMeDTyr-CONH2] (Ac-[dR][Pen]NT[Trp(7-Me)][Cit][Pen][AEF][2Nal][αMeL]EN[dH][dNMeY]-NH2; disulfide 2-7) the same measures were 186 A^2 and 7.42.
For `CC(=O)NCCCC[C@@H]1NC(=O)[C@H](Cc2c[nH]c3c(C)cccc23)NC(=O)[C@H]([C@@H](C)O)NC(=O)[C@H](CC(N)=O)NC(=O)[C@@H](NC(=O)CCOCCOCC[N+](C)(C)C)C(C)(C)SSC(C)(C)[C@@H](C(=O)N[C@@H](Cc2ccc(N=[N+]=[N-])cc2)C(=O)N[C@@H](Cc2ccc3ccccc3c2)C(=O)NC2(C(=O)N[C@@H](CCCCNC(C)=O)C(=O)N[C@@H](CC(N)=O)C(=O)N[C@@H](Cc3cccnc3)C(=O)N(C)CC(N)=O)CCOCC2)NC1=O` [compound 418, cPEG3aCO-Pen(3)-N-T-7MeW-K(Ac)-Pen(3)-F(4N3)-2Nal-THP-K(Ac)-N-3Pya-Sar-CONH2] ({Me3N+(CH2)2O(CH2)2O(CH2)2CO}-[Pen]NT[Trp(7-Me)]K(Ac)[Pen][Phe(4-N3)][2Nal][Thp]K(Ac)N[3Pal][Sar]-NH2; disulfide 1-6) the same measures were 166 A^2 and 8.92.
Take `CCCCCCCCCCCC(=O)N[C@@H](CCC(=O)NCCOCCOCC(=O)NCCOCCOCC(=O)NCCCC[C@@H]1NC(=O)[C@H](Cc2c[nH]c3c(C)cccc23)NC(=O)[C@H]([C@@H](C)O)NC(=O)[C@H](CCCCNC(=O)COCCOCCNC(=O)COCCOCCNC(=O)CC[C@H](NC(=O)CCCCCCCCCCC)C(=O)O)NC(=O)[C@@H](NC(=O)CCOCCOCC[N+](C)(C)C)C(C)(C)SSC(C)(C)[C@@H](C(=O)N[C@@H](Cc2ccc(OCCCCC[N+](C)(C)C)cc2)C(=O)N[C@@H](Cc2ccc3ccccc3c2)C(=O)NC2(C(=O)N[C@@H](CCCCN(C)C(C)=O)C(=O)N[C@@H](CC(N)=O)C(=O)N[C@@H](Cc3cccnc3)C(=O)N(C)CC(=O)N(C)C)CCOCC2)NC1=O)C(=O)O` [compound 389, cPEG3aCO-Pen(3)-K(PEG2PEG2gEC12)-T-7MeW-K(PEG2PEG2gEC12)-Pen(3)-TMAPF-2Nal-THP-K(NMeAc)-N-3Pya-Sar-CON(Me)2] ({Me3N+(CH2)2O(CH2)2O(CH2)2CO}-[Pen]K([AEEA-AEEA-γGlu-Lauroyl])T[Trp(7-Me)]K([AEEA-AEEA-γGlu-Lauroyl])[Pen]Y(X3)[2Nal][Thp][Lys(Me)](Ac)N[3Pal][Sar]-NMe2; disulfide 1-6): the EPSA in data set [1] came to 185 A^2. Also, in data set [2], the pIC50 was 6.41.
With `CC(=O)N(C)CCCC[C@H](NC(=O)[C@H](C)NC(=O)[C@H](Cc1ccc2ccccc2c1)NC(=O)[C@H](Cc1ccc(OCCOCCOCC[N+](C)(C)C)cc1)NC(=O)[C@H]1NC(=O)[C@H](C)NC(=O)[C@H](Cc2c[nH]c3c(C)cccc23)NC(=O)[C@H]([C@@H](C)O)NC(=O)[C@H](C)NC(=O)[C@@H](NC(=O)CCOCCOCC[N+](C)(C)C)C(C)(C)SSC1(C)C)C(=O)N[C@@H](CC(N)=O)C(=O)N[C@@H](Cc1cccnc1)C(=O)N(C)CC(=O)N(C)C` [compound 468, cPEG3aCO-Pen(3)-A-T-7MeW-A-Pen(3)-APEG3f-2Nal-A-K(NMeAc)-N-3Pya-Sar-CON(Me)2] ({Me3N+(CH2)2O(CH2)2O(CH2)2CO}-[Pen]AT[Trp(7-Me)]A[Pen]Y(CH2CH2OCH2CH2OCH2CH2NMe3+)[2Nal]A[Lys(Me)](Ac)N[3Pal][Sar]-NMe2; disulfide 1-6), the EPSA in data set [1] was found to be 151 A^2. The pIC50 in data set [2] was 7.60.
For `CC(=O)N(C)CCCC[C@@H]1NC(=O)[C@H](Cc2c[nH]c3c(C)cccc23)NC(=O)[C@H]([C@@H](C)O)NC(=O)[C@H](CC(=O)N(C)C)NC(=O)[C@@H](NC(=O)CCOCCOCC[N+](C)(C)C)C(C)(C)SSC(C)(C)[C@@H](C(=O)N[C@@H](Cc2ccc(-n3cc(CCCCCCC[N+]4(C)CCOCC4)nn3)cc2)C(=O)N[C@@H](Cc2ccc3ccccc3c2)C(=O)NC2(C(=O)N[C@@H](CCCCN(C)C(C)=O)C(=O)N[C@@H](CC(N)=O)C(=O)N[C@@H](Cc3cccnc3)C(=O)N(C)CC(=O)N(C)C)CCOCC2)NC1=O` [compound 479, cPEG3aCO-Pen(3)-N(N(Me)2)-T-7MeW-K(NMeAc)-Pen(3)-F(4TzIMMo7)-2Nal-THP-K(NMeAc)-N-3Pya-Sar-CON(Me)2] ({Me3N+(CH2)2O(CH2)2O(CH2)2CO}-[Pen]D(NMe2)T[Trp(7-Me)][Lys(Me)](Ac)[Pen][X41][2Nal][Thp][Lys(Me)](Ac)N[3Pal][Sar]-NMe2; disulfide 1-6) the same measures were 158 A^2 and 8.47.
